Laboratory results as given in US12281081B2, “Herbicidal compounds” (SYNGENTA CROP PROTECTION AG, priority 2019, dated 2025).

What was measured:
[1] = tested on: Alopecurus myosuroides (ALOMY); test: Pre-emergence herbicidal glasshouse test; type: in vivo; conditions: 250 g/Ha, evaluated after 13 days
Source text: (§1) Compounds are applied at 250 g/h. […] NT=not tested.

Avena fatua (AVEFA) [2] = test: Pre-emergence herbicidal glasshouse test; type: in vivo; conditions: 250 g/Ha, evaluated after 13 days
Source text: as §1

[3] = tested on: Echinochloa crus-galli (ECHCG); test: Pre-emergence herbicidal glasshouse test; type: in vivo; conditions: 250 g/Ha, evaluated after 13 days
Source text: as §1

Lolium perenne (LOLPE) [4] = test: Pre-emergence herbicidal glasshouse test; type: in vivo; conditions: 250 g/Ha, evaluated after 13 days
Source text: as §1

Setaria faberi (SETFA) [5] = test: Pre-emergence herbicidal glasshouse test; type: in vivo; conditions: 250 g/Ha, evaluated after 13 days
Source text: as §1

[6] = tested on: Alopecurus myosuroides (ALOMY); test: Post-emergence herbicidal glasshouse test; type: in vivo; conditions: 250 g/Ha, evaluated after 13 days
Source text: as §1

Avena fatua (AVEFA) [7] = test: Post-emergence herbicidal glasshouse test; type: in vivo; conditions: 250 g/Ha, evaluated after 13 days
Source text: as §1

[8] = tested on: Echinochloa crus-galli (ECHCG); test: Post-emergence herbicidal glasshouse test; type: in vivo; conditions: 250 g/Ha, evaluated after 13 days
Source text: as §1

Lolium perenne (LOLPE) [9] = test: Post-emergence herbicidal glasshouse test; type: in vivo; conditions: 250 g/Ha, evaluated after 13 days
Source text: as §1

Setaria faberi (SETFA) [10] = test: Post-emergence herbicidal glasshouse test; type: in vivo; conditions: 250 g/Ha, evaluated after 13 days
Source text: as §1

wheat crop plants = test: Crop phytotoxicity comparison, post-emergence
barley crop plants = test: Crop phytotoxicity comparison, post-emergence

CC#Cc1cc(C)c(C2C(=O)CC3(CCN(S(=O)(=O)N4CCS(=O)(=O)CC4)CC3)CC2=O)c(C)c1 [Compound A12]
percentage damage caused to the plant, ALOMY [1]: 5 (5=80-100%) | percentage damage caused to the plant, AVEFA (Avena fatua (AVEFA) [2]): 5 (5=80-100%) | percentage damage caused to the plant, ECHCG [3]: 5 (5=80-100%) | percentage damage caused to the plant, LOLPE (Lolium perenne (LOLPE) [4]): 4 (4=60-79%) | percentage damage caused to the plant, SETFA (Setaria faberi (SETFA) [5]): 5 (5=80-100%) | percentage damage caused to the plant, ALOMY [6]: 5 (5=80-100%) | percentage damage caused to the plant, AVEFA (Avena fatua (AVEFA) [7]): 5 (5=80-100%) | percentage damage caused to the plant, ECHCG [8]: 5 (5=80-100%) | percentage damage caused to the plant, LOLPE (Lolium perenne (LOLPE) [9]): 4 (4=60-79%) | percentage damage caused to the plant, SETFA (Setaria faberi (SETFA) [10]): 5 (5=80-100%)

CC#Cc1cc(C)c(C2C(=O)CC3(CCN(S(=O)(=O)NC(C)=O)CC3)CC2=O)c(C)c1 [Compound A13]
percentage damage caused to the plant, ALOMY [1]: 5 (5=80-100%) | percentage damage caused to the plant, AVEFA (Avena fatua (AVEFA) [2]): 5 (5=80-100%) | percentage damage caused to the plant, ECHCG [3]: 5 (5=80-100%) | percentage damage caused to the plant, LOLPE (Lolium perenne (LOLPE) [4]): 5 (5=80-100%) | percentage damage caused to the plant, SETFA (Setaria faberi (SETFA) [5]): 5 (5=80-100%) | percentage damage caused to the plant, ALOMY [6]: 5 (5=80-100%) | percentage damage caused to the plant, AVEFA (Avena fatua (AVEFA) [7]): 5 (5=80-100%) | percentage damage caused to the plant, ECHCG [8]: 5 (5=80-100%) | percentage damage caused to the plant, LOLPE (Lolium perenne (LOLPE) [9]): 5 (5=80-100%) | percentage damage caused to the plant, SETFA (Setaria faberi (SETFA) [10]): 5 (5=80-100%)

CC#Cc1cc(C)c(C2C(=O)CC3(CCOCC3)CC2=O)c(C)c1 [Compound C1, reference compound]
% phytotoxicity observed, Wheat (wheat crop plants; rate 30 g/ha): 40% | % phytotoxicity observed, Wheat (wheat crop plants; rate 60 g/ha): 70% | % phytotoxicity observed, Wheat (wheat crop plants; rate 60 g/ha + safener cloquintocet-mexyl (CQC) at 50 g/ha): 60% | % phytotoxicity observed, Barley (barley crop plants; rate 30 g/ha): 80% | % phytotoxicity observed, Barley (barley crop plants; rate 60 g/ha): 90%

CC#Cc1cc(C)c(C2=C(OC(=O)OC)CC3(CCN(S(=N)(=O)CC)CC3)CC2=O)c(C)c1 (stereo not shown) [Compound P1]
percentage damage caused to the plant, ALOMY [1]: 5 (5=80-100%) | percentage damage caused to the plant, AVEFA (Avena fatua (AVEFA) [2]): 5 (5=80-100%) | percentage damage caused to the plant, ECHCG [3]: 5 (5=80-100%) | percentage damage caused to the plant, LOLPE (Lolium perenne (LOLPE) [4]): 5 (5=80-100%) | percentage damage caused to the plant, SETFA (Setaria faberi (SETFA) [5]): 5 (5=80-100%) | percentage damage caused to the plant, ALOMY [6]: 5 (5=80-100%) | percentage damage caused to the plant, AVEFA (Avena fatua (AVEFA) [7]): 5 (5=80-100%) | percentage damage caused to the plant, ECHCG [8]: 5 (5=80-100%) | percentage damage caused to the plant, LOLPE (Lolium perenne (LOLPE) [9]): 5 (5=80-100%) | percentage damage caused to the plant, SETFA (Setaria faberi (SETFA) [10]): 5 (5=80-100%)

CC#Cc1cc(C)c(C2=C(OC(=O)OC)CC3(CCN(S(=O)(=O)NC)CC3)CC2=O)c(C)c1 [Compound P2, [9-(2,6-dimethyl-4-prop-1-ynyl-phenyl)-3-(methylsulfamoyl)-10-oxo-3-azaspiro[5.5]undec-8-en-8-yl] methyl carbonate]
percentage damage caused to the plant, ALOMY [1]: 5 (5=80-100%) | percentage damage caused to the plant, AVEFA (Avena fatua (AVEFA) [2]): 5 (5=80-100%) | percentage damage caused to the plant, ECHCG [3]: 5 (5=80-100%) | percentage damage caused to the plant, LOLPE (Lolium perenne (LOLPE) [4]): 5 (5=80-100%) | percentage damage caused to the plant, SETFA (Setaria faberi (SETFA) [5]): 5 (5=80-100%) | percentage damage caused to the plant, ALOMY [6]: 5 (5=80-100%) | percentage damage caused to the plant, AVEFA (Avena fatua (AVEFA) [7]): 5 (5=80-100%) | percentage damage caused to the plant, ECHCG [8]: 5 (5=80-100%) | percentage damage caused to the plant, LOLPE (Lolium perenne (LOLPE) [9]): 5 (5=80-100%) | percentage damage caused to the plant, SETFA (Setaria faberi (SETFA) [10]): 5 (5=80-100%)

CC#Cc1cc(C)c(C2=C(OC(=O)OC)CC3(CCN(S(C)(=N)=O)CC3)CC2=O)c(C)c1 (stereo not shown) [Compound P3, [9-(2,6-dimethyl-4-prop-1-ynyl-phenyl)-3-(methylsulfonimidoyl)-10-oxo-3-azaspiro[5.5]undec-8-en-8-yl] methyl carbonate]
percentage damage caused to the plant, ALOMY [1]: 5 (5=80-100%) | percentage damage caused to the plant, AVEFA (Avena fatua (AVEFA) [2]): 5 (5=80-100%) | percentage damage caused to the plant, ECHCG [3]: 5 (5=80-100%) | percentage damage caused to the plant, LOLPE (Lolium perenne (LOLPE) [4]): 5 (5=80-100%) | percentage damage caused to the plant, SETFA (Setaria faberi (SETFA) [5]): 5 (5=80-100%) | percentage damage caused to the plant, ALOMY [6]: 5 (5=80-100%) | percentage damage caused to the plant, AVEFA (Avena fatua (AVEFA) [7]): 5 (5=80-100%) | percentage damage caused to the plant, LOLPE (Lolium perenne (LOLPE) [9]): 5 (5=80-100%) | percentage damage caused to the plant, SETFA (Setaria faberi (SETFA) [10]): 5 (5=80-100%)

CC#Cc1cc(C)c(C2=C(OC(=O)OC)CC3(CCN(S(=O)(=O)N(C)C(=O)OC)CC3)CC2=O)c(C)c1 [Compound P4]
percentage damage caused to the plant, ALOMY [1]: 5 (5=80-100%) | percentage damage caused to the plant, AVEFA (Avena fatua (AVEFA) [2]): 5 (5=80-100%) | percentage damage caused to the plant, ECHCG [3]: 5 (5=80-100%) | percentage damage caused to the plant, LOLPE (Lolium perenne (LOLPE) [4]): 5 (5=80-100%) | percentage damage caused to the plant, SETFA (Setaria faberi (SETFA) [5]): 5 (5=80-100%) | percentage damage caused to the plant, ALOMY [6]: 5 (5=80-100%) | percentage damage caused to the plant, AVEFA (Avena fatua (AVEFA) [7]): 5 (5=80-100%) | percentage damage caused to the plant, ECHCG [8]: 5 (5=80-100%) | percentage damage caused to the plant, LOLPE (Lolium perenne (LOLPE) [9]): 5 (5=80-100%) | percentage damage caused to the plant, SETFA (Setaria faberi (SETFA) [10]): 5 (5=80-100%)
